Measured values from paper PMC11490426, “Structure-activity relationship of amino acid analogs to probe the binding pocket of sodium-coupled neutral amino acid transporter SNAT2” (Amino Acids, 2024).
“Also recorded” adds a separate entry of the source. Where a name gives a salt, the structure may show the parent alone. Read-outs that look alike come from different tables or passages of the source.

Key:
SNAT2 [1] = target: T1, SNAT2 (Homo sapiens, UniProt Q96QD8); assay: Inhibition of SNAT2-mediated 3H-glycine uptake in hyperosmotically treated PC-3 cells; type: cell-based; details: for inhibition of SNAT2-mediated 3H-glycine uptake / affinity for SNAT2: pH 7.4, result in words
T1 construct: hyperosmotically treated PC-3 cells, known to upregulate SNAT2; endogenous in cells; host or cells: PC-3 prostate cells exposed to hyperosmotic medium for 24 h
T1 sequence (Q96QD8 1-506): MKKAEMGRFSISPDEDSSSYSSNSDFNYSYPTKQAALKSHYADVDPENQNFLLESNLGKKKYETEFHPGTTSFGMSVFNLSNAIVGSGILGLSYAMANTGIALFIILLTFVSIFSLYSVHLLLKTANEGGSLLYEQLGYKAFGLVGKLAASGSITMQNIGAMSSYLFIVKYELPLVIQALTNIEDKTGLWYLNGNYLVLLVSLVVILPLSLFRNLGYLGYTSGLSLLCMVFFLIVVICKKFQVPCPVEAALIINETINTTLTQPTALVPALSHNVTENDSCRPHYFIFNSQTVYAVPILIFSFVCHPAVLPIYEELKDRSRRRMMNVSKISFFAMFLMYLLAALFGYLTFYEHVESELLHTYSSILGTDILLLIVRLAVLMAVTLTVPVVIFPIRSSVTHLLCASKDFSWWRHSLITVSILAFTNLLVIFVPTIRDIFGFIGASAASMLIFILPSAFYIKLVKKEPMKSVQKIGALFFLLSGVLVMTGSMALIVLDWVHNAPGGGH
Description: Where Y is the % uptake, X is the concentration of the inhibitor, Top and Bottom are the top and bottom plateau respectively, and IC50 is the half maximal inhibitory concentration. These studies were performed in at least 3 independent cell passages (n = 3) and a curve was defined for each independent passage. However, for each compound, the top and bottom were constrained to be the same amongst the different cell passages.

SNAT2 [2] = target: T1, SNAT2; assay: FLIPR membrane potential (FMP) assay in PC-3 cells; type: cell-based; details: for response in the FMP assay (stimulation of SNAT2 activity) / influence on fluorescence intensity in the FMP assay: result in words; for influence on fluorescence intensity in the FMP assay: 20 mM
Description: PC-3 cells exposed to hyperosmotic media for 24 h were used to identify SNAT2 substrates in the FMP assay. The media was aspirated, and the cells were preincubated in HBSS + for 10 min at 37 °C and 220 rpm. Then the buffer was aspirated, and cells were then incubated in 50 µL HBSS + containing 0.55 mg ⋅ mL^− 1 (1x) FMP probe (Blue component A from Molecular Devices, San Jose, CA, USA) for 30 min at 37 °C and 220 rpm. […] First, the baseline was measured for 30 s by measuring each well every 3 s. The plate was then removed from the reader and 50 µL of substrate solutions containing 0.55 mg ⋅ mL^− 1 FMP probe was added. These solutions were prepared by mixing equal parts solution containing 2x FMP probe and solutions containing 4x the final concentration of substrate. […] Following this, the baseline of the next column was measured and followed the same procedure as just described.
For the FMP data, the baseline was defined as the mean fluorescence of the first data point before substrate addition. The baseline of each well was then subtracted from the data point to get the ΔF. Plotting ΔF as a function of time and calculating the area under the curve (AUC) after substrate addition was used as a measure of SNAT2 activity.

SNAT2 [3] = target: T1, SNAT2; set-up: method as in Jakobsen et al. [2023]; Nielsen et al. [2022]; details: hyperosmotically treated PC-3 cells; ref Jakobsen et al. [2023]; Nielsen et al. [2022]; cited from earlier work
SNAT2 [4] = target: T1, SNAT2; assay: FLIPR membrane potential (FMP) assay in PC-3 cells; type: cell-based; details: isoosmotically treated PC-3 cells
SNAT2 [5] = target: T1, SNAT2; assay: Intracellular amino acids and analogs quantified by OPA derivatization and HPLC-Fl after uptake in PC-3 cells; type: cell-based; details: 30 min uptake; for fold change of intracellular accumulation in absence vs presence of 10 mM L-glutamine: pH 7.4
Description: Derivatization of AAs and analogs using o-phthalaldehyde (OPA) and 2-mercaptoethanol (2-ME) to make fluorescent derivatives was used to measure the intracellular amounts of AAs and analogs following uptake in hyperosmotically treated PC-3 cells. Before starting the experiment, the medium was aspirated, and the cells were preincubated in HBSS + for 15 min at 37 °C and 220 rpm. The cells were then incubated with 500 µL HBSS+ (background) or HBSS + containing AAs or analogs at given concentrations for 30 min at 37 °C and 220 rpm. After aspirating the donor solutions, the cells were washed thrice with 500 µL of ice-cold PBS while keeping the cells on ice. 200 µL of ice-cold 1x-trypsin was added to each well and allowed to distribute for 20–30 min while keeping the cells on ice. The plate was then transferred to an incubating microplate shaker at 37 °C and 220 rpm for about 8 min or until the cells had detached. 300 µL of ice-cold PBS was added to each well to resuspend the cells and transfer them to centrifuge tubes. The cells were centrifuged at 1000 G for 5 min (4 °C), the supernatant was removed, the cells were resuspended in 300 µL ice-cold PBS, and then centrifuged again at 1000 G for 5 min (4 °C). After removing the supernatant, the cell pellet was lysed by adding 100 µL of 80% methanol (20% ultrapure water) and placing the tubes in an ultrasonic bath for 10 min. The tubes were then centrifuged at 15,000 G for 15 min (4 °C) and the resulting supernatant was used for analysis.
The OPA reagent was prepared by spiking with 2 µL 2-ME per mL of OPA regent and was considered stable for use within one day. 10 µL of the cell samples or standards containing a mixture of the AAs and analogs of interest were placed in HPLC vials with 100 µL inserts. […] The autosampler kept the samples at 10 °C and the pretreatment function was used to automatically mix the samples with 10 µL of the OPA reagent and wait 4 min before loading 2 µL onto a YMC-Triart C18 column (75 × 3.0 mm, 1.9 μm, Mikrolab Aarhus, Viby J, Denmark). […] The fluorescence detector was set to excite at 350 nm and detect at 450 nm.
The resulting chromatograms were integrated and the area under the curve (AUC) of the standard samples was used to generate standard curves to determine the concentration of AAs and analogs in the cell samples. […] Amino acid levels detected in the background cell samples were subtracted from the other cell samples.

[6] = hyperosmotically treated PC-3 cells, 5 min uptake of 11.1 nM 3H-glycine, pH 7.4, read-out: IC50
[7] = 3 mM compound, hyperosmotically treated PC-3 cells
[8] = hyperosmotically treated PC-3 cells
[9] = 10 mM compound, hyperosmotically treated PC-3 cells
[10] = 20 mM compound, hyperosmotically treated PC-3 cells

SMILES: N[C@@H](CC1CCCCC1)C(=O)O [3-Cyclohexyl-L-alanine, 3-cyclohexyl-L-alanine]
- IC50 (SNAT2 [1]; [6]): 630 µM
- AUC of fluorescence response-time curve (SNAT2 [2]; [7]): 21.9 ± 0.5 10^5 RFU ∙ s
- AUC, % of 10 mM L-alanine (SNAT2 [2]; [7]): 99.2 ± 2.4%
- response in the FMP assay (stimulation of SNAT2 activity) (SNAT2 [2]; [8]): substrates of SNAT2

SMILES: CC(=O)C(C)N.Cl (centres unmarked) [3-aminobutan-2-one, 3-Aminobutan-2-one hydrochloride]
- inhibition of SNAT2-mediated 3H-glycine uptake / affinity for SNAT2 (SNAT2 [1]; [8]): retains some affinity for SNAT2

SMILES: C[N+](C)(C)CC(=O)O [Betaine, betaine]
- IC50 (SNAT2 [1]; [6]): 6600 µM
- reduction of 3H-glycine uptake (SNAT2 [3]): ~86%

SMILES: NCC(=O)O [Glycine, glycine]
- IC50 (SNAT2 [1]; [6]): 520 µM
- pIC50 ± SEM (SNAT2 [1]; hyperosmotically treated PC-3 cells, -log transformed IC50): [3.3 ± 0.11]

SMILES: CCOC(=O)[C@H](C)N [L-Alanine ethyl ester, L-alanine ethyl ester hydrochloride]
- IC50 (SNAT2 [1]; [6]): 420 µM
- AUC of fluorescence response-time curve (SNAT2 [2]; [9]): 21.1 ± 0.6 10^5 RFU ∙ s
- AUC, % of 10 mM L-alanine (SNAT2 [2]; [9]): 95.4 ± 2.5%
- response in the FMP assay (stimulation of SNAT2 activity) (SNAT2 [2]; [8]): substrates of SNAT2

SMILES: COC(=O)[C@H](C)N [L-Alanine methyl ester, L-alanine methyl ester hydrochloride]
- IC50 (SNAT2 [1]; [6]): 330 µM
- AUC of fluorescence response-time curve (SNAT2 [2]; [9]): 23.5 ± 0.8 10^5 RFU ∙ s
- AUC, % of 10 mM L-alanine (SNAT2 [2]; [9]): 106.6 ± 3.8%
- response in the FMP assay (stimulation of SNAT2 activity) (SNAT2 [2]; [8]): substrates of SNAT2

SMILES: C[C@H](N)C(=O)OC(C)(C)C [L-Alanine tert-butyl ester, L-alanine tert-butyl ester hydrochloride]
- IC50 (SNAT2 [1]; [6]): 4100 µM

SMILES: C[C@H](N)C(=O)O [L-Alanine, L-alanine]
- IC50 (SNAT2 [1]; [6]): 170 µM
- inhibition of 3H-glycine uptake at different pH levels (SNAT2 [1]; pH 6.8, 7.4 and 8.0, 0.4 mM L-alanine benzyl ester or 0.2 mM L-alanine, two-way ANOVA): no significant differences in inhibition at the different pH levels
- AUC of fluorescence response-time curve (SNAT2 [2]; [9]): 22.1 ± 0.9 10^5 RFU ∙ s
- AUC, % of 10 mM L-alanine (SNAT2 [2]; [9]): 100 ± 3.9%
- EC50 (SNAT2 [2]; [8]): 245 µM
- EC50 (SNAT2 [4]): 138 µM

SMILES: N=C(N)NCCC[C@H](N)C(=O)O [L-Arginine, L-arginine hydrochloride]
- AUC of fluorescence response-time curve (SNAT2 [2]; [10]): -0.97 ± 0.3 10^5 RFU ∙ s
- AUC, % of 10 mM L-alanine (SNAT2 [2]; [10]): -4.4 ± 1.2%
- influence on fluorescence intensity in the FMP assay (SNAT2 [2]): little influence on the fluorescence intensity

SMILES: O=C(O)[C@@H]1CCN1 [L-Azetidine-2-carboxylic acid, L-azetidine-2-carboxylic acid]
- IC50 (SNAT2 [1]): 660 µM

SMILES: N[C@@H](CCO)C(=O)O [L-Homoserine, L-homoserine]
- IC50 (SNAT2 [1]; [6]): 250 µM
- AUC of fluorescence response-time curve (SNAT2 [2]; [9]): 25.9 ± 1.4 10^5 RFU ∙ s
- AUC, % of 10 mM L-alanine (SNAT2 [2]; [9]): 117.5 ± 6.2%
- response in the FMP assay (stimulation of SNAT2 activity) (SNAT2 [2]; [8]): substrates of SNAT2

SMILES: CCCC[C@H](N)C(=O)O [L-Norleucine, L-norleucine]
- AUC of fluorescence response-time curve (SNAT2 [2]; [9]): 24.4 ± 1.3 10^5 RFU ∙ s
- AUC, % of 10 mM L-alanine (SNAT2 [2]; [9]): 110.4 ± 6.1%
- response in the FMP assay (stimulation of SNAT2 activity) (SNAT2 [2]; [8]): substrates of SNAT2

SMILES: O=C(O)[C@@H]1CCCCN1 [L-Pipecolinic acid, L-pipecolinic acid]
- IC50 (SNAT2 [1]; [6]): 2900 µM
- AUC of fluorescence response-time curve (SNAT2 [2]; [9]): 18.1 ± 0.2 10^5 RFU ∙ s
- AUC, % of 10 mM L-alanine (SNAT2 [2]; [9]): 81.9 ± 0.8%
- response in the FMP assay (stimulation of SNAT2 activity) (SNAT2 [2]; [8]): substrates of SNAT2

SMILES: O=C(O)[C@@H]1CCCN1 [L-Proline, L-proline]
- IC50 (SNAT2 [1]; [6]): 640 µM

SMILES: N[C@@H](CO)C(=O)O [L-Serine, L-serine]
- IC50 (SNAT2 [1]; [6]): 460 µM
- AUC of fluorescence response-time curve (SNAT2 [2]; [9]): 24 ± 0.9 10^5 RFU ∙ s
- AUC, % of 10 mM L-alanine (SNAT2 [2]; [9]): 108.6 ± 4.2%
- fold change of intracellular accumulation in absence vs presence of 10 mM L-glutamine (SNAT2 [5]; 0.45 mM compound): 4.1 fold

SMILES: C[C@H](N)CO [L-alaninol]
- inhibition of SNAT2-mediated 3H-glycine uptake / affinity for SNAT2 (SNAT2 [1]; [8]): potency is lost

SMILES: N[C@@H](CCC(=O)O)C(=O)O [L-glutamate, L-glutamic acid]
- inhibition of SNAT2-mediated 3H-glycine uptake / affinity for SNAT2 (SNAT2 [1]; [8]): limited affinity

SMILES: NCCCC[C@H](N)C(=O)O [L-lysine, L-lysine monohydrochloride]
- inhibition of SNAT2-mediated 3H-glycine uptake / affinity for SNAT2 (SNAT2 [1]; [8]): limited affinity

SMILES: N[C@@H](Cc1ccccc1)C(=O)O [L-phenylalanine]
- inhibition of SNAT2-mediated 3H-glycine uptake / affinity for SNAT2 (SNAT2 [1]; [8]): relatively poor at inhibiting SNAT2

SMILES: CN(C)CC(=O)O [N,N-Dimethylglycine, N,N-dimethylglycine hydrochloride]
- IC50 (SNAT2 [1]; [6]): 23000 µM
- IC50 (SNAT2 [1]; hyperosmotically treated PC-3 cells, -log transformed IC50, read-out: pIC50 ± SEM (converted)): 25100 µM

SMILES: CNCC(=O)O [Sarcosine, sarcosine]
- IC50 (SNAT2 [1]; [6]): 710 µM

SMILES: NCCS(=O)(=O)O [Taurine, taurine]
- AUC of fluorescence response-time curve (SNAT2 [2]; [10]): -1.0 ± 0.2 10^5 RFU ∙ s
- AUC, % of 10 mM L-alanine (SNAT2 [2]; [10]): -4.7 ± 0.7%
- influence on fluorescence intensity in the FMP assay (SNAT2 [2]): did not lead to an increase in fluorescence; also recorded: little influence on the fluorescence intensity

SMILES: Cl.NCC(N)=O [glycinamide, glycinamide hydrochloride]
- inhibition of SNAT2-mediated 3H-glycine uptake / affinity for SNAT2 (SNAT2 [1]; [8]): potency is lost

SMILES: N[C@H](C(=O)O)c1ccc(O)cc1 [oxfenicine, Oxfenicine]
- inhibition of SNAT2-mediated 3H-glycine uptake / affinity for SNAT2 (SNAT2 [1]; [8]): relatively poor at inhibiting SNAT2

SMILES: O=C(O)c1ccccn1 [picolinic acid]
- Hill slope of concentration-response curve (SNAT2 [1]; [8]): -4.2
- IC50 (SNAT2 [1]; [6]): 5600 µM

SMILES: O=C(O)[C@@H]1C[C@@H](O)CN1 [trans-4-Hydroxy-L-proline, trans-4-hydroxy-L-proline]
- IC50 (SNAT2 [1]): 3500 µM

SMILES: N[C@@H](CCC(=O)OCc1ccccc1)C(=O)O [γ-Benzyl L-glutamate, γ-benzyl L-glutamate]
- IC50 (SNAT2 [1]; [6]): 680 µM
- AUC of fluorescence response-time curve (SNAT2 [2]; [7]): 1.7 ± 0.4 10^5 RFU ∙ s
- AUC, % of 10 mM L-alanine (SNAT2 [2]; [7]): 7.8 ± 1.9%
- response in the FMP assay (stimulation of SNAT2 activity) (SNAT2 [2]; [8]): little or no stimulation of SNAT2 activity
- fold change of intracellular accumulation in absence vs presence of 10 mM L-glutamine (SNAT2 [5]; 0.7 mM compound): 5.4 fold
- level of intracellular accumulation (SNAT2 [5]; result in words): relatively low accumulation
